Source: US3950525A, “Relaxation of smooth muscle in a mammal” (Pfizer Inc., priority 1975, dated 1976)
Structures can show the parent of a compound that is named as a salt. Where two headings read alike, the source gives them in different places.

How the values were obtained:
[1] = system: histamine aerosol induced bronchoconstriction; test: Bronchodilator Activity (protection of conscious guinea pigs against histamine aerosol); type: in vivo; settings: Cavia porcellus, 1 h, read-out: % Protection
Method: Subsequent to this administration, each animal is challenged with histamine aerosol. […] Immediately after the container is subjected to the histamine spray the animal is placed within it. At the end of one minute of exposure, the respiratory status, which is a reflection of bronchoconstriction, is evaluated. Evaluation levels are designated and scored as normal breathing (0), slight deepened breathing (1), labored breathing (2), severely labored breathing and […] (3) and unconsciousness (4). Each group of animals contains 8 to 10 individual and a control group containing the same approximate number is used. […] The dose, which is given orally, is 60 mg./kg. and the animals are challenged with histamine 60 minutes later.

[2] = system: collagen induced platelet aggregation; test: In Vitro Inhibition of Platelet Aggregation (collagen induced, rabbit platelet-rich plasma); type: cell-based; settings: Oryctolagus cuniculus, 10 min; for inhibition at 600 µM: 6 × 10^^-4 mol./l.; for inhibition at 60 µM: 6 × 10^^-5 mol./l.; for inhibition at 6 µM: 6 × 10^^-6 mol./l.
Method: The ability of the compounds of the present invention to inhibit platelet aggregation in vitro is measured according to the method of Born, et al., J. Physiol., 168, 178 (1963) and comprises the following procedure: Anesthetized male rabbits are bled from a carotid artery into plastic centrifuge tubes containing 0.1 volume 3% sodium citrate. Platelet-rich plasma is separated by centrifugation at 100 G for 10 minutes at 20° C. […] After 10 minutes of incubation with the platelet-rich plasma at room temperature, collagen, a protein known to cause platelet aggregation, is added (0.27 ml. collagen/4 ml. plasma) and changes in the optical density are followed with a Spectronic 20 colorimeter attached to a Houston Instrument TY Recorder. Platelet aggregation is indicated by a decrease in optical density. The relative potency of the compounds of the present invention are thus rated on their ability to inhibit (percent) collagen induced platelet aggregation.

[3] = system: collagen induced platelet aggregation; test: In vitro Inhibition of Platelet Aggregation in Human Plasma (collagen induced); type: cell-based; settings: human platelet-rich plasma
Method: Anesthetized male rabbits are bled from a carotid artery into plastic centrifuge tubes containing 0.1 volume 3% sodium citrate. Platelet-rich plasma is separated by centrifugation at 100 G for 10 minutes at 20° C. Plasma from 3 animals is pooled; 5 ml. samples are placed into clear plastic curvettes and stirred at 1000 rpm, followed by the addition of compounds of the present invention at levels of 6 × 10^^-4 , 10^^-5 and 10^^-6 moles/liter. After 10 minutes of incubation with the platelet-rich plasma at room temperature, collagen, a protein known to cause platelet aggregation, is added (0.27 ml. collagen/4 ml. plasma) and changes in the optical density are followed with a Spectronic 20 colorimeter attached to a Houston Instrument TY Recorder. Platelet aggregation is indicated by a decrease in optical density. The relative potency of the compounds of the present invention are thus rated on their ability to inhibit (percent) collagen induced platelet aggregation.
The procedure of Example XLV is repeated except that platelet-rich plasma from nine human volunteers is employed in place of rabbit plasma. 4-(Diethylamino)-6-phenylpyrimidine hydrochloride provides the following inhibition (%) of collagen induced platelet aggregation at the indicated concentrations: […]

[4] = system: collagen induced platelet aggregation; test: In Vivo Inhibition of Platelet Aggregation (collagen induced aggregation in plasma of dosed dogs); set-up: species or system mongrel dogs; settings: 25 mg./kg. P.O.
Method: The capacity of the compounds of the present invention to inhibit platelet aggregation in a modified in vivo test is measured by the following procedure: Unanesthetized fasted adult mongrel dogs of either sex are dosed orally (P.O.) or intravenously (I.V.) with the particular test compound. Blood samples are taken at hourly intervals and placed in plastic centrifuge tubes containing 0.1 volume 3% sodium citrate. Platelet-rich plasma is separated by centrifugation at 100 G for 10 minutes at 20° C. and treated with a collagen suspension in saline. The effect of two different levels of collagen concentration are examined; the first is a 1:20 dilution, i.e. 1 ml. of collagen suspension per 20 ml. of platelet-rich plasma (high dose), and the second, a 1:40-50 dilution (low dose). Changes in optical density are then followed with a Spectronic 20 colorimeter attached to a Houston Instrument TY Recorder. Platelet aggregation is indicated by a decrease in optical density. […] Measurements are carried out on the hourly samples, allowing for the determination of a duration of the initial effect.

[5] = 60 mg./kg. oral, histamine challenge 60 minutes later

SMILES | inhibition in vivo at 60 mg/kg [1, 5] | inhibition at 600 µM [2] | inhibition at 60 µM [2] | inhibition at 6 µM [2] | further results
CCN(CC)c1cc(-c2cccc(NS(C)(=O)=O)c2)ncn1 | 19% | 95% | 21% | 9% | 
CCCN(CCC)c1cc(-c2cccc(NC(C)=O)c2)ncn1 [4-di-n-propylamino-6-(m-acetylaminophenyl)-pyrimidine] | 30% | 88% | 29% | 22% | 
CCC(=O)Nc1cccc(-c2cc(N(CC)CC)ncn2)c1 [4-diethylamino-6-(m-propionylaminophenyl)pyrimidine] | 30% | 99% | 82% | 13% | 
CCN(CC)c1cc(-c2cccc(NC(C)=O)c2)ncn1 [Ar=3-CH3CONHC6H4; R1=C2H5; R2=C2H5; R3=H, 4-Diethylamino-6-(m-acetylaminopheny)pyrimidine hydrochloride] | 40% |  | 16% | 14% | 
CCN(CC)c1cc(-c2cccc([N+](=O)[O-])c2)ncn1 [Ar=3-NO2C6H4; R1=C2H5; R2=C2H5; R3=H, 4-Diethylamino-6-(m-nitrophenyl)pyrimidine hydrochloride] | 20% | 99% | 93% | 25% | 
CCN(CC)c1cc(-c2ccccc2)ncn1.Cl [Ar=C6H5; R1=C2H5; R2=C2H5; R3=H, 4-Diethylamino-6-phenylpyrimidine hydrochloride] |  | 99% |  | 99% | Mean % Inhibition ([3]; 6 × 10^^-4 mol./l.): 73%; Mean % Inhibition ([3]; 6 × 10^^-5 mol./l.): 59%; Mean % Inhibition ([3]; 6 × 10^^-6 mol./l.): 52%; Mean % Inhibition ([3]; 6 × 10^^-7 mol./l.): 15%; Duration [4]: 5 h; Inhibition to Collagen, High ([4]; high collagen (1:20 dilution)): Complete (complete (95-100%)); Inhibition to Collagen, Low ([4]; low collagen (1:40-50 dilution)): Complete (complete (95-100%))
Cn1c(=O)c2[nH]cnc2n(C)c1=O [theophylline, reference compound] |  |  |  |  | inhibition in vivo at 60 mg/kg ([1]; po): 25%
